Test results taken from PubChem BioAssay (NCI).
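96-well plates; 48 h exposure; 5 concentrations. Endpoints by linear interpolation between flanking doses. Not reached: highest tested concentration assigned. GI50: concentration for 50% inhibition of growth. TGI marks complete inhibition of growth.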

Experiments:
Assay in all cases: inhibition of tumour cell growth, NCI panel, 48 h
CAKI-1 renal = test system: CAKI-1 renal
DU-145 prostate = test system: DU-145 prostate
HL-60(TB) leukemia = test system: HL-60(TB) leukemia
UACC-257 melanoma = test system: UACC-257 melanoma
MALME-3M melanoma = test system: MALME-3M melanoma
HCT-116 colon = test system: HCT-116 colon
MOLT-4 leukemia = test system: MOLT-4 leukemia
SNB-19 CNS = test system: SNB-19 CNS
NCI-H522 lung = test system: NCI-H522 lung
SF-268 CNS = test system: SF-268 CNS
SNB-75 CNS = test system: SNB-75 CNS
MDA-MB-435 = test system: MDA-MB-435
NCI-H226 lung = test system: NCI-H226 lung
LOX IMVI melanoma = test system: LOX IMVI melanoma
HOP-92 NSCLC = test system: HOP-92 NSCLC
EKVX NSCLC = test system: EKVX NSCLC
OVCAR-4 ovarian = test system: OVCAR-4 ovarian
OVCAR-8 ovarian = test system: OVCAR-8 ovarian
ACHN renal = test system: ACHN renal
OVCAR-3 ovarian = test system: OVCAR-3 ovarian
HOP-62 NSCLC = test system: HOP-62 NSCLC
COLO 205 colon = test system: COLO 205 colon
RXF 393 renal = test system: RXF 393 renal
UO-31 renal = test system: UO-31 renal
MCF7 breast = test system: MCF7 breast
NCI-H460 lung = test system: NCI-H460 lung
UACC-62 melanoma = test system: UACC-62 melanoma
RPMI-8226 leukemia = test system: RPMI-8226 leukemia
SN12C renal = test system: SN12C renal
SK-MEL-5 melanoma = test system: SK-MEL-5 melanoma
NCI-H23 lung = test system: NCI-H23 lung
SF-539 CNS = test system: SF-539 CNS
MDA-MB-231 breast = test system: MDA-MB-231 breast
SR leukemia = test system: SR leukemia
M14 melanoma = test system: M14 melanoma
SW-620 colon = test system: SW-620 colon
KM12 colon = test system: KM12 colon
HT29 colon = test system: HT29 colon
786-0 renal = test system: 786-0 renal
NCI/ADR-RES ovarian = test system: NCI/ADR-RES ovarian
SK-OV-3 ovarian = test system: SK-OV-3 ovarian
TK-10 renal = test system: TK-10 renal
SK-MEL-28 melanoma = test system: SK-MEL-28 melanoma
IGROV1 ovarian = test system: IGROV1 ovarian
CCRF-CEM leukemia = test system: CCRF-CEM leukemia
T-47D breast = test system: T-47D breast
BT-549 breast = test system: BT-549 breast
K-562 leukemia = test system: K-562 leukemia
HS 578T breast = test system: HS 578T breast
OVCAR-5 ovarian = test system: OVCAR-5 ovarian
SK-MEL-2 melanoma = test system: SK-MEL-2 melanoma
SF-295 CNS = test system: SF-295 CNS
HCT-15 colon = test system: HCT-15 colon
A549 NSCLC = test system: A549 NSCLC
PC-3 prostate = test system: PC-3 prostate
HCC-2998 colon = test system: HCC-2998 colon
U251 CNS = test system: U251 CNS

COc1cnc2c(c1)C(=O)c1c-2n(CCCBr)c(=O)c2cc([N+](=O)[O-])ccc12
GI50 (CAKI-1 renal): 0.0459 µM
TGI (CAKI-1 renal): 3.05 µM
GI50 (DU-145 prostate): 0.2 µM
TGI (DU-145 prostate): 9.09 µM
GI50 (HL-60(TB) leukemia): 0.31 µM
TGI (HL-60(TB) leukemia): 53 µM
GI50 (UACC-257 melanoma): 0.597 µM
TGI (UACC-257 melanoma): 4.39 µM
GI50 (MALME-3M melanoma): 0.352 µM
TGI (MALME-3M melanoma): 2.02 µM
GI50 (HCT-116 colon): 0.0849 µM
TGI (HCT-116 colon): 1.7 µM
GI50 (MOLT-4 leukemia): 0.052 µM
TGI (MOLT-4 leukemia): 10.2 µM
GI50 (SNB-19 CNS): 0.282 µM
TGI (SNB-19 CNS): 18.7 µM
GI50 (NCI-H522 lung): 0.433 µM
TGI (NCI-H522 lung): 8.46 µM
GI50 (SF-268 CNS): 0.158 µM
TGI (SF-268 CNS): 9.3 µM
GI50 (SNB-75 CNS): 0.43 µM
TGI (SNB-75 CNS): 13.8 µM
GI50 (MDA-MB-435): 0.474 µM
TGI (MDA-MB-435): 5.04 µM
GI50 (NCI-H226 lung): 0.499 µM
TGI (NCI-H226 lung): 3.75 µM
GI50 (LOX IMVI melanoma): 0.075 µM
TGI (LOX IMVI melanoma): 0.549 µM
GI50 (HOP-92 NSCLC): 1.77 µM
TGI (HOP-92 NSCLC): 13.7 µM
GI50 (EKVX NSCLC): 1.27 µM
TGI (EKVX NSCLC): 10.7 µM
GI50 (OVCAR-4 ovarian): 0.686 µM
TGI (OVCAR-4 ovarian): 9.17 µM
GI50 (OVCAR-8 ovarian): 0.364 µM
TGI (OVCAR-8 ovarian): 7.21 µM
GI50 (ACHN renal): 0.0878 µM
TGI (ACHN renal): 3.14 µM
GI50 (OVCAR-3 ovarian): 0.248 µM
TGI (OVCAR-3 ovarian): 1.05 µM
GI50 (HOP-62 NSCLC): 0.0578 µM
TGI (HOP-62 NSCLC): 2.6 µM
GI50 (COLO 205 colon): 0.259 µM
TGI (COLO 205 colon): 2.41 µM
GI50 (RXF 393 renal): 0.364 µM
TGI (RXF 393 renal): 2.43 µM
GI50 (UO-31 renal): 0.0566 µM
TGI (UO-31 renal): 1.51 µM
GI50 (MCF7 breast): 0.0459 µM
TGI (MCF7 breast): 1.2 µM
GI50 (NCI-H460 lung): 0.0407 µM
TGI (NCI-H460 lung): 0.699 µM
GI50 (UACC-62 melanoma): 0.0821 µM
TGI (UACC-62 melanoma): 1.48 µM
GI50 (RPMI-8226 leukemia): 0.301 µM
TGI (RPMI-8226 leukemia): 4.7 µM
GI50 (SN12C renal): 0.269 µM
TGI (SN12C renal): 3.48 µM
GI50 (SK-MEL-5 melanoma): 0.224 µM
TGI (SK-MEL-5 melanoma): 0.533 µM
GI50 (NCI-H23 lung): 0.218 µM
TGI (NCI-H23 lung): 4.27 µM
GI50 (SF-539 CNS): 0.279 µM
TGI (SF-539 CNS): 1.07 µM
GI50 (MDA-MB-231 breast): 2.58 µM
TGI (MDA-MB-231 breast): 31.5 µM
GI50 (SR leukemia): 0.0378 µM
TGI (SR leukemia): > 100 µM
GI50 (M14 melanoma): 0.14 µM
TGI (M14 melanoma): 2.12 µM
GI50 (SW-620 colon): 0.0607 µM
TGI (SW-620 colon): 5.13 µM
GI50 (KM12 colon): 0.375 µM
TGI (KM12 colon): 8.77 µM
GI50 (HT29 colon): 0.202 µM
TGI (HT29 colon): 23.1 µM
GI50 (786-0 renal): 0.223 µM
TGI (786-0 renal): 0.716 µM
GI50 (NCI/ADR-RES ovarian): 0.187 µM
TGI (NCI/ADR-RES ovarian): 12.4 µM
GI50 (SK-OV-3 ovarian): 0.312 µM
TGI (SK-OV-3 ovarian): 7.74 µM
GI50 (TK-10 renal): 2 µM
TGI (TK-10 renal): 16.3 µM
GI50 (SK-MEL-28 melanoma): 1.52 µM
TGI (SK-MEL-28 melanoma): 12 µM
GI50 (IGROV1 ovarian): 0.163 µM
TGI (IGROV1 ovarian): 2.35 µM
GI50 (CCRF-CEM leukemia): 0.0575 µM
TGI (CCRF-CEM leukemia): 17.8 µM
GI50 (T-47D breast): 0.233 µM
TGI (T-47D breast): 3.19 µM
GI50 (BT-549 breast): 0.519 µM
TGI (BT-549 breast): 9.89 µM
GI50 (K-562 leukemia): 0.255 µM
TGI (K-562 leukemia): > 100 µM
GI50 (HS 578T breast): 2.55 µM
TGI (HS 578T breast): 40.1 µM
GI50 (OVCAR-5 ovarian): 1.19 µM
TGI (OVCAR-5 ovarian): 10.2 µM
GI50 (SK-MEL-2 melanoma): 2.04 µM
TGI (SK-MEL-2 melanoma): 6.31 µM
GI50 (SF-295 CNS): 0.0709 µM
TGI (SF-295 CNS): 0.852 µM
GI50 (HCT-15 colon): 0.35 µM
TGI (HCT-15 colon): 15.3 µM
GI50 (A549 NSCLC): 0.347 µM
TGI (A549 NSCLC): 6.85 µM
GI50 (PC-3 prostate): 0.314 µM
TGI (PC-3 prostate): 11.7 µM
GI50 (HCC-2998 colon): 0.386 µM
TGI (HCC-2998 colon): 10.2 µM
GI50 (U251 CNS): 0.101 µM
TGI (U251 CNS): 3.98 µM
